The source made the active and inactive calls.
Tests used:
[1] = molecular target: T1, Mannose-6-phosphate isomerase (Homo sapiens, UniProt P34949); experiment: human PMI inhibitors, high substrate, primary screen, biochemical, fluorescence intensity, high mannose 6-phosphate (AID 1220)
T1 sequence (P34949 whole entry): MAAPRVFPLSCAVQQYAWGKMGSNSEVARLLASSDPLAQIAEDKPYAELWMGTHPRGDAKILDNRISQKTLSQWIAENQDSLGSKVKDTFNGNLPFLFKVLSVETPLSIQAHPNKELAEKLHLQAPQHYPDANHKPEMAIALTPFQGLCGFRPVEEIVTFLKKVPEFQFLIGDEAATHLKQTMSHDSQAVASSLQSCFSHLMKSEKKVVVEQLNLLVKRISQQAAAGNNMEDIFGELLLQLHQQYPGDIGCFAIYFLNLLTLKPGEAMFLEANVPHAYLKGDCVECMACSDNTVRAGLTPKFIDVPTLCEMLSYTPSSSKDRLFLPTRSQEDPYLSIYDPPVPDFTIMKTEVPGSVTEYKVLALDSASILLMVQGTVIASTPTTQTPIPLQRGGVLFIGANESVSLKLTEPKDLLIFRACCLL

[2] = molecular target: T2, Luciferin 4-monooxygenase (Photinus pyralis, UniProt P08659); experiment: firefly luciferase enzyme inhibitors, dose response, biochemical, luminescence (AID 1891)
T2 sequence (P08659 whole entry): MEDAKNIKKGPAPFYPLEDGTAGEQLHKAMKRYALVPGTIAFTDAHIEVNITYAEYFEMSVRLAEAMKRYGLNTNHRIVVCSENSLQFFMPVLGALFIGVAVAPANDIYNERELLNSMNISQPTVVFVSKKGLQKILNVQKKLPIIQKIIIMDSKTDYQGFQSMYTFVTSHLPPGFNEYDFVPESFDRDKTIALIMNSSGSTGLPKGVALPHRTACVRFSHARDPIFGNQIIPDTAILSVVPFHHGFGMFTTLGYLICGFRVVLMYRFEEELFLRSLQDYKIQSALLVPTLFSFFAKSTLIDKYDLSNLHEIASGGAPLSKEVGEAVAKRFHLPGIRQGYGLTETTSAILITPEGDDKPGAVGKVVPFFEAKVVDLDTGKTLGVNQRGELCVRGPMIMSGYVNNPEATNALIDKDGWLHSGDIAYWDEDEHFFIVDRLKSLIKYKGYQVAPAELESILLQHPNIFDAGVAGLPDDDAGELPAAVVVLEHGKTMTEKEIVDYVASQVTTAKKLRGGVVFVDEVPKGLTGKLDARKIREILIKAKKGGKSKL

[3] = Luminescence Cell-Based Dose Confirmation HTS to Identify Inhibitors of Platelet Dense Granule Release. [Related pubchem assays: 1663 (Primary HTS), 1678 (Summary of Project)]; format: functional
[4] = microbe, parasite or virus in culture; format: functional; details: Mycobacterium tuberculosis
[5] = molecular target: T3, Protein RecA (Mycobacterium tuberculosis, UniProt P9WHJ3); experiment: Fluorescence Cell-Free Homogeneous Dose Retest to Identify Inhibitors of RecA-Intein Splicing Activity. [Related pubchem assays (depositor defined):AID2097, AID2223, AID489010, AID492950]; format: functional
T3 sequence (P9WHJ3 whole entry): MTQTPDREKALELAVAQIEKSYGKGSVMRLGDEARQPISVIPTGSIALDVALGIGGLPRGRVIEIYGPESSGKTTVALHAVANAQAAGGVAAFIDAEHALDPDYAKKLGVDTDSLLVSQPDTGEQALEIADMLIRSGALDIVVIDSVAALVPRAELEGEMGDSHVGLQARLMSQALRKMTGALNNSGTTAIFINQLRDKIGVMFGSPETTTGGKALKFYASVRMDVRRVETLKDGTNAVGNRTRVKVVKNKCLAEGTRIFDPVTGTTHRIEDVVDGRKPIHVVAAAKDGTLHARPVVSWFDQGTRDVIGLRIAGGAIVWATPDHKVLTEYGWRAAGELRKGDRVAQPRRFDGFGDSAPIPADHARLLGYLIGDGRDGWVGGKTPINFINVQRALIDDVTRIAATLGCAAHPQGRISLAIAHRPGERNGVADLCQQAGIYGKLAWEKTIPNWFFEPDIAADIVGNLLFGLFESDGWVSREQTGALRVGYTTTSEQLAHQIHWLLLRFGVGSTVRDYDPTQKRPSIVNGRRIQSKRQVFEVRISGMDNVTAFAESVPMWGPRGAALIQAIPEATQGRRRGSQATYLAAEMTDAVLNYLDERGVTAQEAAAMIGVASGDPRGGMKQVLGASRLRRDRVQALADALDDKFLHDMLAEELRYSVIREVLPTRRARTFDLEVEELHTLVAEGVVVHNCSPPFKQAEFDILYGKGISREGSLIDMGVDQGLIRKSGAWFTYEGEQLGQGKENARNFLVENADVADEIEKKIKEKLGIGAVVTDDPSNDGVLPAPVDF

[6] = Luminescence Cell-Based Dose Response HTS to Identify Inhibitors of 5'UTR Stem-Loop Driven Prion Protein mRNA Translation in H4 Neuroglioblastoma Cells. [Related pubchem assays: 1827 (Project Summary), 1813 (Primary HTS)]; format: functional
[7] = molecular target: T4, Replicative DNA helicase DnaB (Mycobacterium tuberculosis, UniProt P9WMR3); experiment: DnaB intein splicing inhibitors, dose response, biochemical, cell-free fluorescence (AID 449749); format: functional
T4 sequence (P9WMR3 whole entry): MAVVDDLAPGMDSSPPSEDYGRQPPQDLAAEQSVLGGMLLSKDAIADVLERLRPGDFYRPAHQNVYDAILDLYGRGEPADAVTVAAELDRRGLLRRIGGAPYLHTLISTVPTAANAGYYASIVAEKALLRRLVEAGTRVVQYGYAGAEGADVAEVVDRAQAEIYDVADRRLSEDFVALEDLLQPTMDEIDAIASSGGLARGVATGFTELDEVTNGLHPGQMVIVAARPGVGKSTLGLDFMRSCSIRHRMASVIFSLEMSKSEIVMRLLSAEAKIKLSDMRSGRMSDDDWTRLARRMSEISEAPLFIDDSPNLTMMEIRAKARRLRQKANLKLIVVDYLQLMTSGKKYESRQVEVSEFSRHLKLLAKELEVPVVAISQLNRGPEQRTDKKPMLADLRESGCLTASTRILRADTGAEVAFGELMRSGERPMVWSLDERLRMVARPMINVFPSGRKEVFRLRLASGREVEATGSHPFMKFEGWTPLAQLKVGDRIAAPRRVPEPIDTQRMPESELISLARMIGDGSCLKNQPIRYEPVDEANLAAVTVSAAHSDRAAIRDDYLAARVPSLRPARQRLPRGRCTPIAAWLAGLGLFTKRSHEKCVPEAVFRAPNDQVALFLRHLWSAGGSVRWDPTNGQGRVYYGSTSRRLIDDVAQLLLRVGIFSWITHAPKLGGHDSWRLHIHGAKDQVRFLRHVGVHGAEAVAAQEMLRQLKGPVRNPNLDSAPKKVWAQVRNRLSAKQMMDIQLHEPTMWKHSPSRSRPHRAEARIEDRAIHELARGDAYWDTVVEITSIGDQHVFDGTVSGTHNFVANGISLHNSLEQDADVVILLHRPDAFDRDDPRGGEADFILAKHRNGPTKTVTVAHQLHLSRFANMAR

[8] = molecular target: T2, Luciferin 4-monooxygenase; experiment: Counter Screen for Luciferase-based Assay Positives. [Related pubchem assays: 620, 618, 411 ]
[9] = system: HT-1080; experiment: cytotoxicity in HT1080 fibrosarcoma cells, cell-based, fluorescence readout (AID 620); format: functional; details: Homo sapiens
[10] = cytotoxicity toward NIH3T3 fibroblasts, dose response, counter-screen, cell-based, ATP luminescence, mouse fibroblasts (AID 2010); format: functional;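 note: cells exposed to compound for about 90 hours before reading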
[11] = molecular target: T5, Oxysterols receptor LXR-beta (Homo sapiens, UniProt P55055); format: functional, cell-based;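 note: agonist activity at LXR measured by a cell-based luminescence readout across a dose range, run as a counterscreen for daf-12 agonists; HEK293 cells with Gal4-LXR fusion and GAL4-driven luciferase reporter; potency for activation of Gal4-LXR reporter so compounds are agonists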
T5 sequence (P55055 whole entry): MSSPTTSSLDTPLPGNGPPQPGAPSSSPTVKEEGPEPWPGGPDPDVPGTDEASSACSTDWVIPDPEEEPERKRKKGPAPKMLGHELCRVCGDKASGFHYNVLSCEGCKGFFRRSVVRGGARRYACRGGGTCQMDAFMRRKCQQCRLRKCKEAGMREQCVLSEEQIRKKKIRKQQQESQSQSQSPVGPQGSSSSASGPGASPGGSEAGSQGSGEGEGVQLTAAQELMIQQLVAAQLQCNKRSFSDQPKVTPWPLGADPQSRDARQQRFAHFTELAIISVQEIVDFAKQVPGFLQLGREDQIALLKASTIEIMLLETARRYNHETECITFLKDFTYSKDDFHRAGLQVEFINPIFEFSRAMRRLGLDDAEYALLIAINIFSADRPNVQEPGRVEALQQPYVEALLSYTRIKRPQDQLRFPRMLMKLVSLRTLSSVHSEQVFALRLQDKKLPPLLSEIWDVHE

[12] = inhibitors of intracellular T. cruzi replication, confirmation, NIH3T3 host cells, beta-gal luminescence (AID 2044); format: functional, cell-based;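 note: intracellular parasites grown in NIH/3T3 mouse fibroblasts as host cells; luminescent beta-galactosidase reporter signal from transgenic T. cruzi replicating inside host cells; inhibitors lower the luminescence signal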
[13] = molecular target: T6, Caspase-6 (Homo sapiens, UniProt P55212); experiment: human caspase-6 inhibitors, dose response, biochemical, VEID-R110 fluorescence, cherry-pick (AID 720632)
T6 sequence (P55212 whole entry): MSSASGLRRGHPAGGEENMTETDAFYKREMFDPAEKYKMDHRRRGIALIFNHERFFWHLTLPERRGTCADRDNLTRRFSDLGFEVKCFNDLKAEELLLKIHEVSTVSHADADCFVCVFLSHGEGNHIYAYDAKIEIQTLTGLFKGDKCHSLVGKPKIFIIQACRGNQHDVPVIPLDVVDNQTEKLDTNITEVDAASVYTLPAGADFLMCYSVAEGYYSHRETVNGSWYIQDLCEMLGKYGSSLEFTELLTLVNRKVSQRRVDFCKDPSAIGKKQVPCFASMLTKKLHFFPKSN

[14] = molecular target: T7, Voltage-gated N-type calcium channel alpha-1B subunit/Amyloid beta A4 precursor protein-binding family A member 1 (Homo sapiens, UniProt Q00975+Q02410); format: protein assay
T7 sequence (Q00975 whole entry): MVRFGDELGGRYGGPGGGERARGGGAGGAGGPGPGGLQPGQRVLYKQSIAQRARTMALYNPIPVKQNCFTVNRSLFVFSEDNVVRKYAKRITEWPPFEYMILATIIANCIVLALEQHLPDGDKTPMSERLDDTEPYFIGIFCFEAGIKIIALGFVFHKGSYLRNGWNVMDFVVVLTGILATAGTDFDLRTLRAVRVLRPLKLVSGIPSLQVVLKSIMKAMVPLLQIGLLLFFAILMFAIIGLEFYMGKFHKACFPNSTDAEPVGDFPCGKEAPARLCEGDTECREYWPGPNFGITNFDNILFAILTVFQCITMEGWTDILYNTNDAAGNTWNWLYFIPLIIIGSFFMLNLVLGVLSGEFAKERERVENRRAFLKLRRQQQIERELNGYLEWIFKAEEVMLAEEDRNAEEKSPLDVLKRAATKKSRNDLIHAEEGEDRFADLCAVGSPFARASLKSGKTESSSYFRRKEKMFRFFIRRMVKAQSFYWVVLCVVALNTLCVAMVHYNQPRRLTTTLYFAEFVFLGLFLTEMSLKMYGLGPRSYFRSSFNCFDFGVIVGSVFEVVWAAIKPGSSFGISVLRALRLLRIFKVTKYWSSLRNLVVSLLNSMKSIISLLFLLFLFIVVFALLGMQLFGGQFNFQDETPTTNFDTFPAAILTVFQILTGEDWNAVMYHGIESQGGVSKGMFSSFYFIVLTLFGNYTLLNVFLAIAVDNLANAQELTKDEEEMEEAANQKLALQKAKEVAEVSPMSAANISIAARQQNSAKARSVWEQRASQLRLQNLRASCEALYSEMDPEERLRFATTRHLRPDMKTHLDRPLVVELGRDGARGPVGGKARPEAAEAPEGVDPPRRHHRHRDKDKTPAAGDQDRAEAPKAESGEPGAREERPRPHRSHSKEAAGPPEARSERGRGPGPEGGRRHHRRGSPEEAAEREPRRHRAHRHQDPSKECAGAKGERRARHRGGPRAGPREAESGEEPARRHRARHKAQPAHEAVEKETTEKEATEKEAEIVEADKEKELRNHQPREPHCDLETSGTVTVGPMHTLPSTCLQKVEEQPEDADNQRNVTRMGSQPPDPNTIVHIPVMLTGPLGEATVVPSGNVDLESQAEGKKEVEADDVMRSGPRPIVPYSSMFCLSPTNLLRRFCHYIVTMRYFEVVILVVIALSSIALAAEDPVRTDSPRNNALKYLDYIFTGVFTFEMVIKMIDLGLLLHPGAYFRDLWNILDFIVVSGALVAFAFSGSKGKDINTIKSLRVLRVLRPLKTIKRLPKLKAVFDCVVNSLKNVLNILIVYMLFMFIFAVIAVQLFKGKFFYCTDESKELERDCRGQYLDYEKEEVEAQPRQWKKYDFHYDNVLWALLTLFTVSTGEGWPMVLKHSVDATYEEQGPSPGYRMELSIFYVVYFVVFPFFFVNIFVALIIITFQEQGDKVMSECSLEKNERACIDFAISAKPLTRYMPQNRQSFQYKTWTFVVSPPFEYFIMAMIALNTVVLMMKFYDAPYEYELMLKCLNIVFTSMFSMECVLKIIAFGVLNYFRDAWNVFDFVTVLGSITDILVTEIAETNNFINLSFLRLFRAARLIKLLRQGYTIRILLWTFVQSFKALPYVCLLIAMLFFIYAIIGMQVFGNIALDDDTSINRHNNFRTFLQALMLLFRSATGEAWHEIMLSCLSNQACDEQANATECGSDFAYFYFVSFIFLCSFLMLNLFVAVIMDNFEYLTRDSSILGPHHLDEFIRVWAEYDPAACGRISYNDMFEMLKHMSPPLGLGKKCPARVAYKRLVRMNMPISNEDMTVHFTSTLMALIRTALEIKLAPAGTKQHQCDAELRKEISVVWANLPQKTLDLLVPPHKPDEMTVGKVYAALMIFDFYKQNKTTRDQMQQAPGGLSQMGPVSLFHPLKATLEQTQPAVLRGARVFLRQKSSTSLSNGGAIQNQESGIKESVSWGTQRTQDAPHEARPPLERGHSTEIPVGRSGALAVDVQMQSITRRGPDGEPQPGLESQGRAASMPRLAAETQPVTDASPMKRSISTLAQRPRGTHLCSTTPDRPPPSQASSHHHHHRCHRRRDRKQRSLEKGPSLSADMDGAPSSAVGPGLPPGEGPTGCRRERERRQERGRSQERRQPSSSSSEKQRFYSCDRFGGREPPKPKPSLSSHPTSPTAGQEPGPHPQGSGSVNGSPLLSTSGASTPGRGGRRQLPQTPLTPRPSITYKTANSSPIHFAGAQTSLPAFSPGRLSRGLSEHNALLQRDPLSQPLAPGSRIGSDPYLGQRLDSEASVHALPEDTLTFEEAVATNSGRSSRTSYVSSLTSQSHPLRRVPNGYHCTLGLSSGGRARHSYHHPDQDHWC
T7 sequence (Q02410 whole entry): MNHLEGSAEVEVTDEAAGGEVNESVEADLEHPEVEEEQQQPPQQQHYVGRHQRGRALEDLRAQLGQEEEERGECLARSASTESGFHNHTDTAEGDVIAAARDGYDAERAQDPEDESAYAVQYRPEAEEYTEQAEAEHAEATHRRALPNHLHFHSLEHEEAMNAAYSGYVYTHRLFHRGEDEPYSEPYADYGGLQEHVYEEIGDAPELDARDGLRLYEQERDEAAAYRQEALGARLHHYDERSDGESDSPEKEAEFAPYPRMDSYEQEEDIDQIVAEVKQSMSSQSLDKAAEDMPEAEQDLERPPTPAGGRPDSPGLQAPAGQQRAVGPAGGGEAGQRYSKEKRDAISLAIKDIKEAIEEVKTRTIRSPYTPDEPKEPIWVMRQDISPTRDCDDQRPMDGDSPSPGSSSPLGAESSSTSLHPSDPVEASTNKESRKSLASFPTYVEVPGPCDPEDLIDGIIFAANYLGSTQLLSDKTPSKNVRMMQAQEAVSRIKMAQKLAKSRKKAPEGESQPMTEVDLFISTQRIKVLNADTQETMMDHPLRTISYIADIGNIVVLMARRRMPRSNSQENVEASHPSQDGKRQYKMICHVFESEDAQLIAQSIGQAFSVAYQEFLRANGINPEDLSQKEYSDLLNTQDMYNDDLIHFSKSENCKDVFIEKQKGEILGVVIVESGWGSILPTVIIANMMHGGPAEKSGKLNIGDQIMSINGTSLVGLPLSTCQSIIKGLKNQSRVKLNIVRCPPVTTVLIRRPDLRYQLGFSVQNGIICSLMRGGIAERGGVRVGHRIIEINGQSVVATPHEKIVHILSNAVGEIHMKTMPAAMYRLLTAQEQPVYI

[15] = molecular target: T7, Voltage-gated N-type calcium channel alpha-1B subunit/Amyloid beta A4 precursor protein-binding family A member 1; format: protein assay; remark: listed apart in the source
[16] = molecular target: DNA dC->dU-editing enzyme APOBEC-3G (Homo sapiens, UniProt Q9HC16); experiment: Dose Response confirmation of small molecule APOBEC3G DNA Deaminase Inhibitors via a fluorescence-based single-stranded DNA deaminase assay. [Related pubchem assays (depositor defined):AID493012, AID493028]; format: functional
DNA dC->dU-editing enzyme APOBEC-3G, sequence (Q9HC16 whole entry): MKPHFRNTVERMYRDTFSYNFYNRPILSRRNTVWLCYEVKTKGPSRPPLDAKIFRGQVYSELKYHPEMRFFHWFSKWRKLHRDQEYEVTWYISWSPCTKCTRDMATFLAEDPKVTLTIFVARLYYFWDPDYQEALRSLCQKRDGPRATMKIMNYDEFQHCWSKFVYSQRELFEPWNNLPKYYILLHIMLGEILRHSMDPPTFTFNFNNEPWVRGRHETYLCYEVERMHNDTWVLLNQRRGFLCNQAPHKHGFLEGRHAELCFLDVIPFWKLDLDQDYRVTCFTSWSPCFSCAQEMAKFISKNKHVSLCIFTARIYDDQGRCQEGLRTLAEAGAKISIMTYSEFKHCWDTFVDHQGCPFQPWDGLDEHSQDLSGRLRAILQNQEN

[17] = molecular target: DNA dC->dU-editing enzyme APOBEC-3A (Homo sapiens, UniProt P31941); experiment: APOBEC3A DNA deaminase inhibitors, dose response, biochemical (AID 504722); format: functional
DNA dC->dU-editing enzyme APOBEC-3A, sequence (P31941 whole entry): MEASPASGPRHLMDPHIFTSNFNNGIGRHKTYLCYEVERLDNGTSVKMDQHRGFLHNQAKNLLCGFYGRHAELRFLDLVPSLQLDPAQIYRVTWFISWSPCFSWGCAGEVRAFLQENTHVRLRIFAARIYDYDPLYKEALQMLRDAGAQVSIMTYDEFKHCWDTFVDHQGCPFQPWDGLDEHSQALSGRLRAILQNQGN

[18] = molecular target: Eukaryotic translation initiation factor 4E (Mus musculus, UniProt P63073); experiment: eIF4E–eIF4G protein interaction inhibitors, dose response, biochemical, TR-FRET (AID 855); format: functional;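 note: potency for disrupting eIF4E binding to eIF4GI seen as loss of FRET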
Eukaryotic translation initiation factor 4E, sequence (P63073 whole entry): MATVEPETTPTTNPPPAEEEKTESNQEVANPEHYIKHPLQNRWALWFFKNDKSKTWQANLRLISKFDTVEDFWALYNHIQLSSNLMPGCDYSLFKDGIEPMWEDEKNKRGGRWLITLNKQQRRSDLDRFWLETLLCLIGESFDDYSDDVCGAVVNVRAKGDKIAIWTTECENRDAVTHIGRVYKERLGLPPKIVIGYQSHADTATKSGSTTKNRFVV

[19] = molecular target: Prothrombin (Homo sapiens, UniProt P00734); experiment: Thrombin 1536 HTS Dose Response Confirmation. [Related pubchem assays: 1046 (Thrombin 1536 HTS; hits were confirmed in this assay)]; format: functional

OC1=C(/C=N/c2ccc3c(c2)OCO3)CCc2ccccc21
IC50 [1]: 0.829 µM (active) | EC50 [2]: 0.871 µM (active) | EC50 [3]: 7.07 µM (active) | CC50 [4]: > 40 µM (active) | EC50 [5]: 0.43 µM (active) | EC50 [6]: 7.7 µM (active) | AC50 [7]: > 380 µM (inactive) | EC50 [8]: 2.31 µM (active) | EC50 [9]: > 50 µM (not active)

CN1CCN(/C=N/c2sc3c(c2C#N)CCCCC3)CC1
EC50 [10]: > 60 µM (not active) | EC50 [2]: > 112 µM (not active) | EC50 [3]: > 112 µM (not active) | EC50 [11]: > 67.5 µM (inactive) | EC50 [12]: 1.01 µM (active)

CC1CCCCC1NC(=O)COC(=O)c1ccc([N+](=O)[O-])o1 (configuration not stated)
AC50 [13]: 43.8 µM (active)

CCOC(=O)c1ccc(/N=c2\ssnc2Cl)cc1
IC50 [1]: > 50 µM (not active) | IC50 [14]: 7.13 µM (active) | IC50 [15]: 11.5 µM (active) | IC50 [16]: 13.8 µM (active) | IC50 [17]: > 100 µM (inactive) | IC50 [18]: 50 µM (inactive)

CCOC(=O)c1sc(NC(=O)/C=C/c2cnn(C)c2C)c(C(=O)OCC)c1C
IC50 [19]: > 50 µM (not active)

From ChEMBL document CHEMBL1201862, “PubChem BioAssay data set” (2004)
